{"source": "patent US20190010139A1", "about": "(priority 2015, published 2019)", "data": [{"system": "NL-RLuc virus", "assay": "Inhibition of HIV replication (NL-RLuc luciferase reporter virus in MT-2 cells)", "type": "cell-based", "conditions": "Human immunodeficiency virus 1, MT2, 120 h, read-out: Activity", "description": "(§1) Inhibition of HIV Replication:\n(§2) A recombinant NL-RLuc proviral clone was constructed in which a section of the nef gene from NL4-3 was replaced with the Renilla Luciferase gene. This virus is fully infectious and can undergo multiple cycles of replication in cell culture. In addition, the luciferous reporter provides a simple and easy method for quantitating the extent of virus growth and consequently, the antiviral activity of test compounds. The plasmid pNLRLuc contains the proviral NL-Rluc DNA cloned into pUC 18 at the PvuII site. The NL-RLuc virus was prepared by transfection of 293T cells with the plasmid pNLRLuc. Transfections were performed using the LipofectAMINE PLUS kit from Invitrogen (Carlsbad, Calif.) according to the manufacturer and the virus generated was titered in MT-2 cells. For susceptibility analyses, the titrated virus was used to infect MT-2 cells in the presence of compound, and after 5 days of incubation, cells were processed and quantitated for virus growth by the amount of expressed luciferase. Assay media was RPMI 1640 supplemented with 10% heat inactivated fetal bovine serum (FBS), 100 units/ml penicillin G/100 units/ml streptomycin, 10 mM HEPES buffer pH 7.55 and 2 mM L-glutamine. The results from at least 2 experiments were used to calculate the EC50 values. Luciferase was quantitated using the Dual Luciferase kit from Promega (Madison, Wis.). Susceptibility of viruses to compounds was determined by incubation in the presence of serial dilutions of the compound. The 50% effective concentration (EC50) was calculated by using the exponential form of the median effect equation where (Fa)=1/[1+(ED50/drug conc.)^m](Johnson V A, Byington R T. Infectivity Assay. In Techniques in HIV Research. ed. Aldovini A, Walker B D. 71-76. New York: Stockton Press.1990). Activity equal to A refers to a compound having an EC50≤100 nM, while B and C denote compounds having an EC50 between 100 nM and 1 uM (B) or >1 uM (C).", "units": {"EC50": "µM"}, "values": [{"smiles": "Cc1nc(C)c([C@H](OC(C)(C)C)C(=O)O)c(N2CCC3(CCCC3)CC2)c1-c1ccc2c(c1)CCN(Cc1ccccc1F)C2", "note": "[Example 26, (S)-2-(tert-Butoxy)-2-(5-(2-(2-fluorobenzyl)-1,2,3,4-tetrahydroisoquinolin-6-yl)-2,6-dimethyl-4-(8-azaspiro[4.5]decan-8-yl)pyridin-3-yl)acetic acid]", "EC50": "< 0.1"}, {"smiles": "Cc1nc(C)c([C@H](OC(C)(C)C)C(=O)O)c(N2CCC3(CCC3)CC2)c1-c1ccc(OCCc2ccc(F)cc2)cc1", "note": "[Example 27, (S)-2-(tert-Butoxy)-2-(5-(4-(4-fluorophenethoxy)phenyl)-2,6-dimethyl-4-(7-azaspiro[3.5]nonan-7-yl)pyridin-3-yl)acetic acid]", "EC50": "< 0.1"}, {"smiles": "Cc1nc(CN2CCCCC2)c(-c2ccc(OCCc3ccc(F)cc3)cc2)c(N2CCC3(CCC3)CC2)c1[C@H](OC(C)(C)C)C(=O)O", "note": "[Example 53, (S)-2-(tert-Butoxy)-2-(5-(4-(4-fluorophenethoxy)phenyl)-2-methyl-6-(piperidin-1-ylmethyl)-4-(7-azaspiro[3.5]nonan-7-yl)pyridin-3-yl)acetic acid]", "EC50": "< 0.1"}, {"smiles": "COc1cc(-c2c(C)nc(C)c([C@H](OC(C)(C)C)C(=O)O)c2N2CCC3(CCCC3)CC2)ccc1C(=O)NCc1ccccc1", "note": "[Example 25, (S)-2-(5-(4-(Benzylcarbamoyl)-3-methoxyphenyl)-2,6-dimethyl-4-(8-azaspiro[4.5]decan-8-yl)pyridin-3-yl)-2-(tert-butoxy)acetic acid]", "EC50": "< 0.1"}, {"smiles": "Cc1nc(C)c([C@H](OC(C)(C)C)C(=O)O)c(N2CCC3(CCCCC3)CC2)c1-c1ccc(OCCc2ccc(F)cc2)cc1", "note": "[Example 60, (S)-2-(tert-Butoxy)-2-(5-(4-(4-fluorophenethoxy)phenyl)-2,6-dimethyl-4-(3-azaspiro[5.5]undecan-3-yl)pyridin-3-yl)acetic acid]", "EC50": "< 0.1"}, {"smiles": "Cc1nc(CNC2CCOCC2)c(-c2ccc(OCCc3ccc(F)cc3)cc2)c(N2CCC3(CCC3)CC2)c1[C@H](OC(C)(C)C)C(=O)O", "note": "[Example 55, (S)-2-(tert-Butoxy)-2-(5-(4-(4-fluorophenethoxy)phenyl)-2-methyl-4-(7-azaspiro[3.5]nonan-7-yl)-6-(((tetrahydro-2H-pyran-4-yl)amino)methyl)pyridin-3-yl)acetic acid]", "EC50": "< 0.1"}, {"smiles": "Cc1nc(C)c([C@H](OC(C)(C)C)C(=O)O)c(N2CC3CC3C2)c1-c1ccc(C(=O)NCc2ccccc2)cc1", "note": "(stereo partly drawn) [Example 7, (2S)-2-(5-(4-(Benzylcarbamoyl)phenyl)-4-(3-azabicyclo[3.1.0]hexan-3-yl)-2,6-dimethylpyridin-3-yl)-2-(tert-butoxy)acetic acid]", "EC50": "0.1 to 1"}, {"smiles": "Cc1nc(C)c([C@H](OC(C)(C)C)C(=O)O)c(N2CCCC3(CCCC3)C2)c1-c1ccc(C(=O)NCc2ccccc2)cc1", "note": "[Example 19, (S)-2-(5-(4-(Benzylcarbamoyl)phenyl)-2,6-dimethyl-4-(7-azaspiro[4.5]decan-7-yl)pyridin-3-yl)-2-(tert-butoxy)acetic acid]", "EC50": "0.1 to 1"}, {"smiles": "Cc1nc(C)c([C@H](OC(C)(C)C)C(=O)O)c(N2CC3CCC(C)(C2)C3(C)C)c1-c1ccc(C(=O)NCc2ccccc2)cc1", "note": "(stereo partly drawn) [Example 5, (S)-2-(5-(4-(Benzylcarbamoyl)phenyl)-2,6-dimethyl-4-(1,8,8-trimethyl-3-azabicyclo[3.2.1]octan-3-yl)pyridin-3-yl)-2-(tert-butoxy)acetic acid]", "EC50": "< 0.1"}, {"smiles": "Cc1nc(CNCC2CCOCC2)c(-c2ccc(OCCc3ccc(F)cc3)cc2)c(N2CCC3(CCC3)CC2)c1[C@H](OC(C)(C)C)C(=O)O", "note": "[Example 45, (S)-2-(tert-Butoxy)-2-(5-(4-(4-fluorophenethoxy)phenyl)-2-methyl-4-(7-azaspiro[3.5]nonan-7-yl)-6-((((tetrahydro-2H-pyran-4-yl)methyl)amino)methyl)pyridin-3-yl)acetic acid]", "EC50": "< 0.1"}, {"smiles": "Cc1nc(CN(C)CC2CCOCC2)c(-c2ccc(OCCc3ccc(F)cc3)cc2)c(N2CCC3(CCC3)CC2)c1[C@H](OC(C)(C)C)C(=O)O", "note": "[Example 46, (S)-2-(tert-Butoxy)-2-(5-(4-(4-fluorophenethoxy)phenyl)-2-methyl-6-((methyl((tetrahydro-2H-pyran-4-yl)methyl)amino)methyl)-4-(7-azaspiro[3.5]nonan-7-yl)pyridin-3-yl)acetic acid]", "EC50": "< 0.1"}, {"smiles": "Cc1cccc(F)c1CN1CCc2cc(-c3c(C)nc(C)c([C@H](OC(C)(C)C)C(=O)O)c3N3CCC4(CCC4)CC3)ccc2C1", "note": "[Example 34, (S)-2-(tert-Butoxy)-2-(5-(2-(2-fluoro-6-methylbenzyl)-1,2,3,4-tetrahydroisoquinolin-6-yl)-2,6-dimethyl-4-(7-azaspiro[3.5]nonan-7-yl)pyridin-3-yl)acetic acid]", "EC50": "< 0.1"}, {"smiles": "Cc1nc(CN(C)CC2CCCCC2)c(-c2ccc(OCCc3ccc(F)cc3)cc2)c(N2CCC3(CCC3)CC2)c1[C@H](OC(C)(C)C)C(=O)O", "note": "[Example 59, (S)-2-(tert-Butoxy)-2-(6-(((cyclohexylmethyl)(methyl)amino)methyl)-5-(4-(4-fluorophenethoxy)phenyl)-2-methyl-4-(7-azaspiro[3.5]nonan-7-yl)pyridin-3-yl)acetic acid]", "EC50": "< 0.1"}, {"smiles": "Cc1nc(CF)c(-c2ccc(OCCc3ccc(F)cc3)cc2)c(N2CCC3(CCC3)CC2)c1[C@H](OC(C)(C)C)C(=O)O", "note": "[Example 40, (S)-2-(tert-Butoxy)-2-(6-(fluoromethyl)-5-(4-(4-fluorophenethoxy)phenyl)-2-methyl-4-(7-azaspiro[3.5]nonan-7-yl)pyridin-3-yl)acetic acid]", "EC50": "< 0.1"}, {"smiles": "Cc1nc(COC2CCOCC2)c(-c2ccc(OCCc3ccc(F)cc3)cc2)c(N2CCC3(CCC3)CC2)c1[C@H](OC(C)(C)C)C(=O)O", "note": "[Example 52, (S)-2-(tert-Butoxy)-2-(5-(4-(4-fluorophenethoxy)phenyl)-2-methyl-4-(7-azaspiro[3.5]nonan-7-yl)-6-(((tetrahydro-2H-pyran-4-yl)oxy)methyl)pyridin-3-yl)acetic acid]", "EC50": "< 0.1"}, {"smiles": "Cc1nc(CN2CCCC2)c(-c2ccc(OCCc3ccc(F)cc3)cc2)c(N2CCC3(CCC3)CC2)c1[C@H](OC(C)(C)C)C(=O)O", "note": "[Example 44, (S)-2-(tert-Butoxy)-2-(5-(4-(4-fluorophenethoxy)phenyl)-2-methyl-6-(pyrrolidin-1-ylmethyl)-4-(7-azaspiro[3.5]nonan-7-yl)pyridin-3-yl)acetic acid]", "EC50": "< 0.1"}, {"smiles": "Cc1nc(C)c([C@H](OC(C)(C)C)C(=O)O)c(N2CC3CCCC3C2)c1-c1ccc(C(=O)NCc2ccccc2)cc1", "note": "(stereo partly drawn) [Example 4, (2S)-2-(5-(4-(Benzylcarbamoyl)phenyl)-4-(hexahydrocyclopenta[c]pyrrol-2(1H)-yl)-2,6-dimethylpyridin-3-yl)-2-(tert-butoxy)acetic acid]", "EC50": "< 0.1"}, {"smiles": "Cc1nc(COCC2COC2)c(-c2ccc(OCCc3ccc(F)cc3)cc2)c(N2CCC3(CCC3)CC2)c1[C@H](OC(C)(C)C)C(=O)O", "note": "[Example 48, (S)-2-(tert-Butoxy)-2-(5-(4-(4-fluorophenethoxy)phenyl)-2-methyl-6-((oxetan-3-ylmethoxy)methyl)-4-(7-azaspiro[3.5]nonan-7-yl)pyridin-3-yl)acetic acid]", "EC50": "< 0.1"}, {"smiles": "Cc1nc(C)c([C@H](OC(C)(C)C)C(=O)O)c(N2CC3C(C2)C3(C)C)c1-c1ccc(C(=O)NCc2ccccc2)cc1", "note": "(stereo partly drawn) [Example 9, (2S)-2-(5-(4-(Benzylcarbamoyl)phenyl)-4-(6,6-dimethyl-3-azabicyclo[3.1.0]hexan-3-yl)-2,6-dimethylpyridin-3-yl)-2-(tert-butoxy)acetic acid]", "EC50": "< 0.1"}, {"smiles": "Cc1nc(C)c([C@H](OC(C)(C)C)C(=O)O)c(N2CC3C(C2)C3(C)C)c1-c1ccc(OCCc2ccc(F)cc2)cc1", "note": "(stereo partly drawn) [Example 8, (2S)-2-(tert-Butoxy)-2-(4-(6,6-dimethyl-3-azabicyclo[3.1.0]hexan-3-yl)-5-(4-(4-fluorophenethoxy)phenyl)-2,6-dimethyl-pyridin-3-yl)acetic acid]", "EC50": "< 0.1"}, {"smiles": "Cc1nc(C)c([C@H](OC(C)(C)C)C(=O)O)c(N2CCC3(CCCC3)CC2)c1-c1ccc(C(=O)NCc2ccccc2)cc1", "note": "[Example 21, (S)-2-(5-(4-(Benzylcarbamoyl)phenyl)-2,6-dimethyl-4-(8-azaspiro[4.5]decan-8-yl)pyridin-3-yl)-2-(tert-butoxy)acetic acid]", "EC50": "< 0.1"}, {"smiles": "Cc1nc(C)c([C@H](OC(C)(C)C)C(=O)O)c(N2CCC3(CCCC3)CC2)c1-c1ccc(OCCc2ccc(F)cc2)cc1", "note": "[Example 20, (S)-2-(tert-Butoxy)-2-(5-(4-(4-fluorophenethoxy)phenyl)-2,6-dimethyl-4-(8-azaspiro[4.5]decan-8-yl)pyridin-3-yl)acetic acid]", "EC50": "< 0.1"}, {"smiles": "Cc1nc(CN2CCC3(CCC3)CC2)c(-c2ccc(OCCc3ccc(F)cc3)cc2)c(N2CCC3(CCC3)CC2)c1[C@H](OC(C)(C)C)C(=O)O", "note": "[Example 57, (S)-2-(6-(7-Azaspiro[3.5]nonan-7-ylmethyl)-5-(4-(4-fluorophenethoxy)phenyl)-2-methyl-4-(7-azaspiro[3.5]nonan-7-yl)pyridin-3-yl)-2-(tert-butoxy)acetic acid]", "EC50": "< 0.1"}]}, {"system": "NL-RLuc virus", "assay": "Inhibition of HIV replication (NL-RLuc luciferase reporter virus in MT-2 cells)", "type": "cell-based", "conditions": "Human immunodeficiency virus 1, MT2, 120 h, read-out: EC50 μM", "description": "as §1, §2", "units": {"EC50": "µM"}, "values": [{"smiles": "Cc1nc(CNC2CCOCC2)c(-c2ccc(OCCc3ccc(F)cc3)cc2)c(N2CCC3(CCC3)CC2)c1[C@H](OC(C)(C)C)C(=O)O", "note": "[Example 55, (S)-2-(tert-Butoxy)-2-(5-(4-(4-fluorophenethoxy)phenyl)-2-methyl-4-(7-azaspiro[3.5]nonan-7-yl)-6-(((tetrahydro-2H-pyran-4-yl)amino)methyl)pyridin-3-yl)acetic acid]", "EC50": 0.001}, {"smiles": "Cc1nc(C)c([C@H](OC(C)(C)C)C(=O)O)c(N2CC3CC3C2)c1-c1ccc(C(=O)NCc2ccccc2)cc1", "note": "(stereo partly drawn) [Example 7, (2S)-2-(5-(4-(Benzylcarbamoyl)phenyl)-4-(3-azabicyclo[3.1.0]hexan-3-yl)-2,6-dimethylpyridin-3-yl)-2-(tert-butoxy)acetic acid]", "EC50": 0.651}, {"smiles": "Cc1nc(C)c([C@H](OC(C)(C)C)C(=O)O)c(N2CC3C(C2)C3(C)C)c1-c1ccc(C(=O)NCc2ccccc2)cc1", "note": "(stereo partly drawn) [Example 9, (2S)-2-(5-(4-(Benzylcarbamoyl)phenyl)-4-(6,6-dimethyl-3-azabicyclo[3.1.0]hexan-3-yl)-2,6-dimethylpyridin-3-yl)-2-(tert-butoxy)acetic acid]", "EC50": 0.083}]}]}
